Results from US6500823B1, “Unsaturated hydroximic acid derivatives as per abstract inhibitors” (N-Gene Research Laboratories, Inc., priority 1998, dated 2002).
Counter-ions that a name gives are not always drawn.

What was measured:
[1] = biological target: T1, poly-ADP-ribose polymerase from rat liver (Rattus norvegicus, UniProt P27008); assay: In vitro PARP inhibition on isolated enzyme; type: biochemical; conditions: for IC50: isolated rat liver enzyme, ± SEM from four parallel measurements, read-out: PARP I0.5 mg/l (converted)
T1 construct: We have isolated the poly-ADP-ribose polymerase from rat liver; from tissue; host or cells: rat liver
T1 sequence (P27008 whole entry): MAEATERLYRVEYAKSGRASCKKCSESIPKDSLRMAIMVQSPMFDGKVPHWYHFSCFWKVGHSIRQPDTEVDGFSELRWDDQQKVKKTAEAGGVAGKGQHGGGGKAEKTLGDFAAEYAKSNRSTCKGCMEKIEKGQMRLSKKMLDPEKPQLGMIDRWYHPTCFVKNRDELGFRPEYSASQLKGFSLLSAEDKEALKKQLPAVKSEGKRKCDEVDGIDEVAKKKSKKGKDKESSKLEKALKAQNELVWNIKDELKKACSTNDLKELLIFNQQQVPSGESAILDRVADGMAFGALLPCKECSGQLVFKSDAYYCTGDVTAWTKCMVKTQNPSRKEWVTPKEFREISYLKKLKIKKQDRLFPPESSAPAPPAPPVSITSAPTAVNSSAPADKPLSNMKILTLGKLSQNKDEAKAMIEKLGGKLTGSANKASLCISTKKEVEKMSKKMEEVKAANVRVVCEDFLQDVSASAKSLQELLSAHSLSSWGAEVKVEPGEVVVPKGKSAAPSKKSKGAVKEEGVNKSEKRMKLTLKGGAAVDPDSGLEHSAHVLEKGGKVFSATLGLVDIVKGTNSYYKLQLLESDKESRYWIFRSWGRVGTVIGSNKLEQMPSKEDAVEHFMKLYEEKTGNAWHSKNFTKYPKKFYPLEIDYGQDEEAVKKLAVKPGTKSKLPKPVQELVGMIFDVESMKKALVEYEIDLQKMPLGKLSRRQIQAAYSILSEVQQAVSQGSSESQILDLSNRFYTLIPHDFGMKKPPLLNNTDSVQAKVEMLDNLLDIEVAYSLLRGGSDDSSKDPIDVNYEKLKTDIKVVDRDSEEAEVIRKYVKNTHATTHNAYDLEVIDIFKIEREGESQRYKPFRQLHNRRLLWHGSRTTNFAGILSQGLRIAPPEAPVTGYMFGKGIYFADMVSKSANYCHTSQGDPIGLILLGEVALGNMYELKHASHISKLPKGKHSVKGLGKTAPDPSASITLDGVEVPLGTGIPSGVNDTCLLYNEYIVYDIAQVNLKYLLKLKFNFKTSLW
Method: We have isolated the poly-ADP-ribose polymerase from rat liver according to the article Shah.G. M.,Anal Biochem, 227, 1-13 (1995).
We have determined the PARP activation in 130 μl of reaction mixture, which consists of: 100 mM Tris-HCl puffer, pH 8.0, 10 mM MgCl2, 10% glycerol, 1.5 mM DTT, 100 μg of (32P), or (3H), NAD+, 10 μg of histone. We have stopped the reaction after 10 minutes with 8% perchloric acid and seperated the protein through centrifugation (10 minutes, 10.000×g). We have washed the precipitate with 8% perchloric acid, and we measured the radioactivity connected to the protein with scintillation counter.

[2] = system: male SPRD rats; assay: Reperfusion induced arrhythmia after LAD occlusion, survival rate; type: in vivo, rat; conditions: for responders at 5 mg/kg: Rattus norvegicus, iv, control 15.38, read-out: % SURV; for effect on survival of reperfusion arrhythmia, in words: compared with Example 2 (100% survival)
Method: Experiments were carried out in male SPRD rats (acceptable body weight range: 300-350 g). The animals were anesthetized with sodium pentobarbital (Nembutal®: 60 mg/kg intraperitoneally) and remained breathing spontaneously. The animals were ventilated with respirator (MTA Kutesz) by using trachea cannule which was inserted after tracheotomy. The standard lead of the ECG II is monitored. Right femoral artery was catheterized and connected to a pressure transducer (BPR-01, Experimetria, Hungary), a preamplifier and pulsotachometer (HG-M, Experimetria, Hungary) for arterial blood pressure and heart rate measurement, respectively. The external jugular vein was cannulated for drug administration. After thoracotomy a silk (braided, coated 4-0) was placed under the left anterior coronary (LAD) artery. After a few minutes' stabilization period, a 5 min occlusion of LAD artery was applied, followed by a 10 min reperfusion period. The survival rate was evaluated.

[3] = system: mouse HSP-70 gene promoter in mouse fibroblast L929 cells; assay: HSP-70 promoter-luciferase reporter gene assay; type: cell-based; conditions: Control = 100; 10 μl of 10^-2 M solution to 1 ml culture, 30 min, 1 hour regeneration
From the text: The activity of HSP-70 was studied by reporter gene assay forming a DNA hybrid. To the promoter sequence of HSP-70 encoding the heat shock protein was fused a gene of a protein that can be detected by a well-measurable enzyme activity. Biotechnological processes were used. As reporter gene luciferase enzyme was employed, the activity of which can be well determined by luminescence measurement. If the promoter of the gene of the luciferase enzyme is substituted by the promoter of the HSP-70 gene, then the change in the activity of the luciferase enzyme i.e. the change of the frequency of the transcription from the gene correlates with the frequency of the transcription of the HSP-70 gene that proceeds in the given circumstances. In this way, if a substance or process influences the expression of the HJSP-70 gene, the effect can be studied through the measurement of the luciferase enzyme activity. The effect of the substances to be tested on the HSP-70 expression was studied in such an experimental system.
A double-stranded DNA circular molecule i.e. a plasmid containing the HSP-70 reporter gene was constructed to perform the measurements. An almost 600 bp long sequence of the mouse HSP-70 gene promoter (5′ direction from the start site of the gene) was fused to the coding sequence of the luciferase gene originated from Photymus pyralis. The applied promoter sequence contained several protein binding sites facilitating the expression of the HSP-70 gene. The HSP promoter-luciferase heterologous gene construct was built in a pBR based plasmid vector that can be selected for neomycin. This HSP-70-luciferase plasmid was transfected into mouse fibroblast L929 cells. The assay was performed as follows.
The HSP-70-luc plasmid containing L929 cells are grown in DMEM (Dulbecco's Modified Eagle's Medium) medium supplemented with 5% FCS (Fetal Calf Serum). 10^4 cells are plated in the wells of a 24-well Costar cell culture plate in 1 ml of culture medium. Test substances are dissolved in PBS (Phosphate Buffered Saline) in 10^−2 M concentration. After attachment of the cells (3-4 hours after plating) 10 μl of the solution are given to the cultures and cells are incubated for 30 min. at 37° C. in a CO2 thermostat. Culture medium is then changed for fresh one (without test substance) and cells are allowed to regenerate for 1 hour at 37° C., then once washed with PBS. After removal of PBS 40 μl of 1× lysis buffer are added to the cells, and the samples are kept on ice for 30 minutes. Then the samples are transferred into Eppendorf vials and centrifuged at 14000 rpm for 20 min at 4° C. 5 μl of the supernatant is added to 25 μl of luciferase assay buffer and the luminescence of the samples is measured for 25 seconds in a luminometer.

[4] = biological target: Moloney murine leukemia virus reverse transcriptase (Moloney murine leukemia virus, UniProt P03355); assay: Reverse transcriptase inhibition, (3H)dTTP incorporation; type: biochemical; conditions: for inhibition at 2 µg/mL: concentration 2 μg/ml
Method: The compounds may be sorted into group of the non-nucleoside type reverse transcriptase inhibitors. Tests were performed on Moloney murine leukemia virus reverse transcriptase that is considered as a good model of the HIV reverse transcriptase enzyme. The experimental assembly was the following.
The assay measures the incorporation of (3H)dTTP into cDNA using poly(dA) template and oligo(dT)12-18 primer. The reaction was carried out in 20 μl volume.
The reaction was started by addition of 5U reverse transcriptase
The reaction mixture was incubated for 40 min at 37° C. Then 15 μl of the reaction mixture was loaded on Whatman DE81 filter discs and filters were washed sequentially with 5% disodium hidrogen phosphate buffer, with water and with 96% (v/v) ethanol. After drying, the filters were placed into scintillation cocktail (OptiPhase, HiSafe, Wallac) and the radioactivity was measured in a Packard Tri-Carb 2200 scintillation counter.
Two compounds with known inhibitory activity were used in the experiments as positive control. AZT is a nucleoside analog while the compound Nevirapin is a non-nucleoside type inhibitor. Nevirapine binds to the so called benzodiazepine binding site of the enzyme. The applied concentrations of the test compounds were in the 0.2-2 μg/ml concentration range.

[5] = system: HepG2 cells; assay: LDH enzyme activity in hypoxia exposed HepG2 cells; type: cell-based; conditions: Homo sapiens, 30 μg/ml, hypoxia 1% O2 24 hours, Hypoxic control = 100, read-out: Relative LDH content, %
Method: HepG2 cell were cultured in DMEM medium supplemented with 10% FCS in 5% CO2 containing air at 37° C. 10^5 cells were plated in the wells of Costar 24-well culture plates in 1 ml medium. On the following day, cells were treated with the test compounds in a concentration of 30 μg/ml, then cells were exposed to hypoxia treatment (1% O2, 5% CO2 in nitrogen gas) for 24 hours. A part of the control cultures were treated with water used as the solvent, and another part of them was not exposed to hypoxia. At the end of the hypoxic treatment, medium was removed and cells were washed twice with cold PBS. Cells lysates were prepared in 0.05% Triton X-100 containing phosphate buffer (0.05 M) and after centrifugation (2 min. […]) the LDH activity of the supernatant was determined on the basis of NADH consumption in the presence of sodium piruvate substrate.
The LDH activity of the cells treated with the test compounds and compared to the activity of the control exposed to hypoxia is shown in Table 6.

Structure (SMILES) | IC50 [1] | responders at 5 mg/kg [2] | activity at 30 µg/mL [5] | other results
NC(C=Cc1cccnc1)=NOCC(O)CN1CCCCC1 (stereo not drawn) [Example 5, O-(3-Piperidino-2-hydroxy-propyl)-3-(3-Pyridyl)acrylic Acid Amidoxime Dihydrochloride] | 58.1 µM | 50% |  | Activity (HSP-70 promoter luciferase) [3]: 199; inhibition at 1 µg/mL ([4]; concentration 1.0 μg/ml, read-out: Enzyme inhibition, %): 52%; inhibition at 2 µg/mL ([4]; read-out: Enzyme inhibition, %): 57%; reverse transcriptase inhibiting effect compared with Nevirapin and AZT, in words ([4]; dose dependent, lower than AZT): higher than that of Nevirapin
CC(C)(C)NCC(O)CON=C(N)C=Cc1ccccc1 (stereo not drawn) [Example 6, O-(3-t.Buthylamino-2-hydroxy-propyl)-cinnamic Acid Amidoxime] | 27.5 µM |  |  | Activity (HSP-70 promoter luciferase) [3]: 302
NC(C=Cc1ccccc1)=NOCC(O)CN1CCOCC1 (stereo not drawn) [Example 7, O-(3-Morpholino-2-hydroxy-propyl)-cinnamic Acid Amidoxime] | 22.9 µM | 42% | 141% | 
COc1ccc(C=CC(N)=NOCC(O)CNC(C)(C)C)cc1OC (stereo not drawn) [Example 8, O-(3-t.Butylamino-2-hydroxy-propyl)-3,4-dimethoxycinnamic Acid Amidoxime Dihydrochloride] | 28.5 µM | 37.5% | 116% | 
COc1ccc(C=CC(N)=NOCC(O)CN2CCOCC2)cc1OC (stereo not drawn) [Example 9, O-(3-Morpholino-2-hydroxy-propyl-3,4-dimethoxycinnamic Acid Amidoxime Hydrochloride] | 35.6 µM |  |  | 
NC(C=Cc1cccnc1)=NOCC(O)CN1CCOCC1 (stereo not drawn) [Example 10, O-(3-Morpholino-2-hydroxy-propyl)-3-(3-pyridyl)-acrylic Acid Amidoxime Hydrochloride] | 55.5 µM |  |  | 
NC(C=Cc1ccccc1)=NOCC(O)CN1CCc2ccccc2C1 (stereo not drawn) [Example 11, O-[3-(1,2,3,4-Tetrahydro-2-isoquinolyl)-2-hydroxy-propyl)]cinnamic Acid Amidoxime Dihydrochloride] | 51.2 µM | 20% | 124% | 
CC(C)(C)NCC(O)CON=C(N)C=Cc1cccnc1 (stereo not drawn) [Example 14, O-(3-t.Buthylamino-2-hydroxy-propyl)-3-(3-pyridyl)acrylic Acid Amidoxime Dihydrochloride] | 44.5 µM | 43% |  | 
COc1ccc(C=CC(N)=NOCC(O)CN2CCCCC2)cc1OC (stereo not drawn) [Example 18, O-(3-Piperidino-2-hydroxy-propyl)-3,4-dimethoxycinnamic Acid Amidoxime] | 93.8 µM | 67% |  | effect on survival of reperfusion arrhythmia, in words [2]: similarly outstanding effect
OC(CON=C(Cl)C=Cc1ccccc1)CN1CCCC1 (stereo not drawn) [Example 26, N-(3-Pyrrolidino-2-hydroxy-propoxy)-3-phenyl Acrylimidoyl Chloride] |  |  | 112% | 
ClC(C=Cc1cccnc1)=NOCCCN1CCCCC1.O=C(O)/C=C\C(=O)O [Example 32, N-(3-Piperidino-propoxy)-3-(3-pyridyl)acrylimidoyl Chloride Hydrogen Maleate] |  | 71.4% |  | effect on survival of reperfusion arrhythmia, in words [2]: similarly outstanding effect
Cc1ccnc2c1NC(=O)c1cccnc1N2C1CC1 [Nevirapin, reference compound] |  |  |  | inhibition at 0.2 µg/mL ([4]; concentration 0.2 μg/ml, read-out: Enzyme inhibition, %): 21%; inhibition at 2 µg/mL ([4]; read-out: Enzyme inhibition, %): 26%

The next lines start with results.

IC50 [1] | Structure (SMILES) | responders at 5 mg/kg [2] | activity at 30 µg/mL [5] | other results
19.4 µM | COc1ccc(C=CC(N)=NOCC(O)CN2CCc3ccccc3C2)cc1OC (stereo not drawn) [Example 12, O-[3-(1,2,3,4-Tetrahydro-2-isoquinolyl)-2-hydroxy-propyl]-3,4-dimethoxy-cinnamic Acid Amidoxime Dihydrochloride] |  |  | 
34 µM | NC(C=Cc1cccnc1)=NOCC(O)CN1CCc2ccccc2C1 (stereo not drawn) [Example 13, O-(3-(1,2,3,4-Tetrahydro-2-isoquinolyl)-2-hydroxy-propyl)-3-(3-pyridyl) Acrylic Acid Amidoxime Dihydrochloride] |  |  | Activity (HSP-70 promoter luciferase) [3]: 156
65.7 µM | NC(C=Cc1ccccc1)=NOCC(O)CN1CCCC1 (stereo not drawn) [Example 15, O-3-Pyrrolidino-2-hydroxy-propyl) Cinnamic Acid Amidoxime dihydrochloride] |  |  | Activity (HSP-70 promoter luciferase) [3]: 115
51.5 µM | COc1ccc(C=CC(N)=NOCC(O)CN2CCCC2)cc1OC (stereo not drawn) [Example 16, O-(3-Pyrrolidino-2-hydroxy-propyl)-3,4-dimethoxycinnamic Acid Amidoxime Dihydrochloride] |  | 120% | 
51.7 µM | NC(C=Cc1cccnc1)=NOCC(O)CN1CCCC1 (stereo not drawn) [Example 17, O-(3-Pyrrolidino-2-hydroxy-propyl)-3-(3-pyridyl)acrylic Acid Amidoxime Hydrochloride] |  | 118% | 
609 µM | NC(C=C1CCCCC1)=NOCC(O)CN1CCCCC1 (stereo not drawn) [Example 19, O-(3-Piperidino-2-hydroxy-propyl)cyclohexyldene Acetamidoxime] |  |  | PARP inhibitor classification in words ([1]; conclusion on Table 1): very poor PARP inhibitor
19.2 µM | CC(C)(C)NCC(O)CON=C(Cl)C=Cc1cccnc1 (stereo not drawn) [Example 31, N-(3-t.Butylamino-2-hydroxy-propoxy)-3-(3 pyridyl)acrylimidoyl Chloride Hydrogen Maleate] |  |  | 
15.8 µM | OC(CON=C(Cl)C=Cc1cccnc1)CN1CCOCC1 (stereo not drawn) [Example 33, N-(3-Morpholino-2-hydroxy-propoxy)-3-(3-pyridyl)acrylimidoyl Chloride Hydrogen Maleate] |  |  | 
